Source: US20120010281A1, “ANTIMICROBIAL AND ANTI[…]” (THE TRUSTEES OF PRINCETON UNIVERSITY, priority 2010, published 2012)
≈ marks a conversion by molar mass, not a printed value.

Tested on: M. tuberculosis mc^27000
Assay: microbe, parasite or virus in culture
Assay type: cell-based
Conditions: for MIC: Mycobacterium tuberculosis, 120 h, range of assayed concentrations that bounds the mean of three independent determinations, read-out: mc^27000 7H9 MIC; for inhibitory activity against Mtb mc^27000 (in words): comment on the Table 1 MIC values, relative to tiamulin

## C=C1C[C@@H](OC(=O)CO)C2CCCC3(CCC(=O)C23)C[C@@H]1O (some centres unmarked) [Compound 4]
  MIC: > 200 µg/mL

## C=C1C[C@@H](OC(=O)CSCCN(CC)CC)C2CCCC3(CCC(=O)C23)C[C@@H]1O (some centres unmarked) [Compound 20a]
  MIC: 50 to 100 µg/mL (≈ 118 to 236 µM)
  inhibitory activity against Mtb mc^27000 (in words): attenuated activity

## C=C1C[C@@H](OC(=O)CSCCN(CC)CC)C2CCCC3(CCC(=O)C23)C[C@H]1O (some centres unmarked) [Compound 20c]
  MIC: 12 to 25 µg/mL (≈ 28.3 to 59 µM)
  inhibitory activity against Mtb mc^27000 (in words): compares favorably to tiamulin

## CCN(CC)CCSCC(=O)O[C@H]1C/C(C)=C\CC23CCCC1C2C(=O)CC3 (some centres unmarked) [Compound 25]
  MIC: 50 µg/mL (≈ 123 µM)
  inhibitory activity against Mtb mc^27000 (in words): moderate, yet significant, level of activity

## C=CC1(C)C[C@@H](OC(=O)CO)C2(C)C(C)CCC3(CCC(=O)C32)[C@@H](C)[C@@H]1O (some centres unmarked) [Pleuromutilin (1), Pleuromutilin, reference compound]
  MIC: 25 to 50 µg/mL (≈ 66 to 132 µM)
  inhibitory activity against Mtb mc^27000 (in words): low micromolar MIC values

## C=C[C@]1(C)C[C@@H](OC(=O)CSCCN(CC)CC)C2(C)C(C)CCC3(CCC(=O)C32)[C@@H](C)[C@@H]1O (some centres unmarked) [tiamulin (3), tiamulin, reference compound]
  MIC: 12 to 25 µg/mL (≈ 24.3 to 50.6 µM)
  inhibitory activity against Mtb mc^27000 (in words): low micromolar MIC values
